Assay results from ChEMBL document CHEMBL1201862, “PubChem BioAssay data set” (2004).
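Step 1: Grow cells in 96-well plates. Step 2: Expose to compound for 48 hours at 5 concentrations. Step 3: Interpolate endpoints linearly; if unreached, use highest concentration. GI50 = concentration required for 50% inhibition of growth.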 Activity calls are given as the source filed them. No stated cut-off is given here; in the data, active = GI50 up to about 1.1 µM and inactive = higher.

Key:
Test in all cases: growth of human tumour cells (NCI), 48 h
[1] = test system: 786-0
[2] = test system: A498
[3] = test system: A549
[4] = test system: ACHN
[5] = test system: BT-549
[6] = test system: CAKI-1
[7] = test system: COLO 205
[8] = test system: DU-145
[9] = test system: EKVX
[10] = test system: HCT-116
[11] = test system: HCT-15
[12] = test system: HL-60
[13] = test system: HOP-62
[14] = test system: HOP-92
[15] = test system: HT-29
[16] = test system: Hs-578T
[17] = test system: IGROV-1
[18] = test system: K562
[19] = test system: KM12
[20] = test system: LOX IMVI
[21] = test system: M14
[22] = test system: MCF7
[23] = test system: MDA-MB-231
[24] = test system: MDA-MB-435
[25] = test system: MDA-N
[26] = test system: MOLT-4
[27] = test system: Malme-3M
[28] = test system: NCI-H226
[29] = test system: NCI-H23
[30] = test system: NCI-H522
[31] = test system: NCI/ADR-RES
[32] = test system: OVCAR-3
[33] = test system: OVCAR-4
[34] = test system: OVCAR-5
[35] = test system: OVCAR-8
[36] = test system: PC-3
[37] = test system: RPMI-8226
[38] = test system: RXF 393
[39] = test system: SF-268
[40] = test system: SF-295
[41] = test system: SK-MEL-28
[42] = test system: SK-MEL-2
[43] = test system: SK-MEL-5
[44] = test system: SK-OV-3
[45] = test system: SN12C
[46] = test system: SNB-19
[47] = test system: SR
[48] = test system: SW-620
[49] = test system: T47D
[50] = test system: TK-10
[51] = test system: U-251
[52] = test system: UACC-257
[53] = test system: UACC-62
[54] = test system: UO-31
[55] = test system: CCRF-CEM
[56] = test system: HCC 2998
[57] = test system: NCI-H460
[58] = test system: SF-539
[59] = test system: SNB-75

Measured: GI50

CC(C)CC1c2[nH]c3ccccc3c2C[C@H]2C(=O)NC(CCC(=O)OC(C)(C)C)C(=O)N12 (some centres not stated)
inactive: [1] 43 µM | [2] 40.4 µM | [3] 34 µM | [4] 30.8 µM | [5] 33.5 µM | [6] 42.4 µM | [7] 20.6 µM | [8] 47.1 µM | [9] 35.2 µM | [10] 28.8 µM | [12] 28.1 µM | [13] 23 µM | [14] 27.5 µM | [15] 21.1 µM | [16] 15.1 µM | [17] 33.5 µM | [18] 36.9 µM | [19] 40.6 µM | [20] 22.9 µM | [21] 36.7 µM | [22] 36.9 µM | [23] 27.2 µM | [24] 36 µM | [25] 30.7 µM | [26] 22.6 µM | [27] 24.4 µM | [28] 49.7 µM | [29] 34.6 µM | [30] 25.2 µM | [31] 30.3 µM | [32] 16.8 µM | [33] 37.3 µM | [34] 34.3 µM | [35] 39.3 µM | [36] 23.4 µM | [37] 25.8 µM | [38] 19.1 µM | [39] 27.4 µM | [40] 19.4 µM | [41] 52.1 µM | [42] 18.4 µM | [43] 25.9 µM | [44] 42.5 µM | [45] 22.8 µM | [46] 37.3 µM | [47] 22 µM | [48] 45 µM | [49] 15.8 µM | [50] 25.8 µM | [51] 29 µM | [52] 25.9 µM | [53] 30.5 µM | [54] 33 µM
33.8 µM: [11]

CN(Cc1c2ccccc2cc2ccccc12)S(=O)(=O)c1ccc(-c2c3nc(c(-c4ccc(S(=O)(=O)N(C)Cc5c6ccccc6cc6ccccc56)cc4)c4ccc([nH]4)c(-c4ccc(S(=O)(=O)N(C)Cc5c6ccccc6cc6ccccc56)cc4)c4nc(c(-c5ccc(S(=O)(=O)N(C)Cc6c7ccccc7cc7ccccc67)cc5)c5ccc2[nH]5)C=C4)C=C3)cc1
> 100 µM: [11]
inactive: [1] 53.1 µM | [2] > 100 µM | [3] > 100 µM | [4] > 100 µM | [5] > 100 µM | [6] > 100 µM | [55] > 100 µM | [7] > 100 µM | [8] > 100 µM | [9] > 100 µM | [56] > 100 µM | [10] > 100 µM | [12] > 100 µM | [13] 30.3 µM | [14] 29.2 µM | [15] > 100 µM | [16] 57.8 µM | [17] > 100 µM | [18] > 100 µM | [19] > 100 µM | [20] > 100 µM | [21] > 100 µM | [22] > 100 µM | [23] > 100 µM | [24] > 100 µM | [25] > 100 µM | [26] > 100 µM | [27] > 100 µM | [29] > 100 µM | [57] > 100 µM | [30] > 100 µM | [31] > 100 µM | [32] > 100 µM | [33] > 100 µM | [34] > 100 µM | [35] > 100 µM | [36] > 100 µM | [37] > 100 µM | [38] 42.1 µM | [39] > 100 µM | [40] 63.7 µM | [58] 99.1 µM | [41] > 100 µM | [42] > 100 µM | [43] > 100 µM | [44] > 100 µM | [45] > 100 µM | [46] 44 µM | [59] 24.4 µM | [47] > 100 µM | [48] > 100 µM | [49] > 100 µM | [50] > 100 µM | [51] 47.2 µM | [52] > 100 µM | [53] > 100 µM | [54] > 100 µM

C[C@H]1/C(=C/C(=O)OCCN(C)C)CC[C@H]2[C@H]1C(=O)C[C@H]1C(C)(C)[C@@H](O)CC[C@]21C
inactive: [1] > 100 µM | [2] > 100 µM | [3] > 100 µM | [4] > 100 µM | [5] > 100 µM | [6] > 100 µM | [55] > 100 µM | [7] > 100 µM | [8] > 100 µM | [9] > 100 µM | [56] > 100 µM | [10] > 100 µM | [12] > 100 µM | [13] > 100 µM | [14] > 100 µM | [15] > 100 µM | [16] > 100 µM | [17] > 100 µM | [19] > 100 µM | [20] > 100 µM | [21] > 100 µM | [22] > 100 µM | [23] > 100 µM | [24] > 100 µM | [25] > 100 µM | [26] > 100 µM | [27] > 100 µM | [28] 22.5 µM | [29] > 100 µM | [57] > 100 µM | [30] > 100 µM | [31] > 100 µM | [32] > 100 µM | [33] > 100 µM | [34] > 100 µM | [35] > 100 µM | [36] > 100 µM | [37] > 100 µM | [38] > 100 µM | [39] > 100 µM | [40] > 100 µM | [58] > 100 µM | [41] > 100 µM | [42] > 100 µM | [43] > 100 µM | [44] > 100 µM | [45] > 100 µM | [46] > 100 µM | [47] > 100 µM | [48] > 100 µM | [49] > 100 µM | [50] > 100 µM | [51] > 100 µM | [52] > 100 µM | [53] > 100 µM | [54] > 100 µM
> 100 µM: [11]

CN(O)C(=O)/C=C/c1ccc(OCc2cccc(Cl)c2)cc1
12.9 µM: [11]
inactive: [1] 18.7 µM | [2] 17 µM | [3] 21.2 µM | [4] 14.5 µM | [5] 21.8 µM | [6] 26.4 µM | [55] 8.26 µM | [7] 28.9 µM | [8] 20.8 µM | [9] 26.5 µM | [56] 23.6 µM | [10] 16.8 µM | [12] 18 µM | [13] 24.4 µM | [14] 24.3 µM | [15] 18 µM | [16] 61.7 µM | [17] 17.3 µM | [18] 36.1 µM | [19] 17.7 µM | [20] 11.2 µM | [21] 28 µM | [22] 48.6 µM | [23] 43.9 µM | [24] 32.2 µM | [25] 43.1 µM | [26] 8.77 µM | [28] 21.4 µM | [29] 16.3 µM | [57] 16.5 µM | [30] 25.7 µM | [31] 19.7 µM | [32] 38.6 µM | [33] 19.6 µM | [34] 39.7 µM | [35] 16.3 µM | [36] 24.5 µM | [37] 27.5 µM | [38] 30.7 µM | [39] 23.9 µM | [40] 22.8 µM | [58] 29.2 µM | [41] 38.5 µM | [42] 23.8 µM | [43] 24.2 µM | [44] 25.6 µM | [45] 20.1 µM | [46] 42.5 µM | [59] 26.4 µM | [47] 7.06 µM | [48] 26.9 µM | [49] 20.1 µM | [50] 48.6 µM | [51] 22 µM | [52] 51.8 µM | [53] 15 µM | [54] 10.1 µM
